The text below walks through data of patent US4175544A, “Iodo-aryl carbonates for use in methods in radiography” (Lafayette Pharmacal Inc., priority 1978, dated 1979).

Some results are limits rather than exact numbers.

Data set [1] concerns lymph nodes (popliteal and iliac). Conditions: dog, in vivo.
Experimental: Four iodinated organic carbonates prepared as described hereinabove were evaluated for use as lymphographic agents in laboratory dogs.
Six adult mongrel dogs, preconditioned for at least two weeks at the Lafayette Pharmacal, Inc. facilities, were used for the study. The dogs were removed from food the evening prior to dosing. Each animal was first anesthetized with Rompun and sodium pentobarbital and intubated to assist in breathing. A standard lymphogram was then performed on one rear leg only of each animal using known laboratory procedures. Specifically, a blue dye was first injected between the toes of the right hind limb to locate the lymph ducts. A single duct was then disected out and cannulated. One of the six compounds was then selected and a syringe pump used to inject the test compound into the duct at a constant rate. In this regard, the dogs were injected with an effective amount of one (1) cc of test substance per 20 lbs. of body weight. The iodinated phenyl compounds were brought to about body temperature prior to the injecting and then were injected while at about the body temperature.
Radiographs were then taken of each animal after confirming the location of the injected bolus by fluoroscopy means. The animals were given atropine sulfate and observations made while they were allowed to recover from the anesthetic unassisted.
The animals were then returned to their cages and radiographs were taken at the end of 24 hours, 3 days and 1, 2, 3, 4 and 6 weeks to determine the radiographic clearance rate of each tested compound. Daily urine samples were also collected and subjected to fluorescent exitation analysis to determine the urinary clearance rate for each compound. Six weeks after the initial lymphogram, the animals were sacrificed and the popliteal and iliac nodes on both sides removed. The nodes from the dosed side and undosed side of each animal were then compared histopathologically.
Data set [2] concerns albino mice. The data set is described as follows: Initial toxicity screen: Approximate Lethal Dose by intraperitoneal injection (Deichmann and LeBlanc). The data set is classed as in vivo. Conditions: for Approximate Lethal Dose (ALD): intraperitoneal, albino mice, neat liquid or suspension, footnote (b): largest dose administered (e, f, i, p, q). The method, then:
As an initial toxicity screen for the compounds shown hereinabove, the neat liquid or suspension of the material was injected into the peritoneal cavity of albino mice and the Approximate Lethal Dose (ALD) determined using the method of Deichmann and LeBlanc (W. B. Deichmann and T. J. LeBlanc, J. Ind. Hyg., 25, 415 (1943)) the results of which are presented in Table II, as set forth hereinafter.
Approximate Interperitoneal Toxicity in Mice
Approximate Lethal Dose Ml/Kg

The next data set concerns brain and spinal cord. The data set is described as follows: Suboccipital study of laboratory animals (neurotoxicity, brain and spinal cord histopathology). Conditions: rat; for Overall / histopathological response: 0.1 ml suboccipital injection, 1 to 14 weeks; for Difficulty with righting responses / Recovery from the injection procedure: suboccipital injection; for Recovery from the injection procedure: as a group; for Lipid puddle formation: compared with air and Pantopaque. It counts as in vivo, laboratory rats. The method, then:
Six iodinated phenyl carbonate compounds prepared as described above, as well as air and Pantopaque, a known prior art radiographic compound, were injected suboccipitally into separate groups of 30 laboratory rats. The six iodinated compounds under examination were p-iodobenzyl-n-hexyl carbonate, p-iodobenzyl-n-octyl carbonate, p-iodobenzyl-2-octyl carbonate, 2-ethylhexyl-p-iodobenzyl carbonate, n-hexyl-3-(p-iodophenyl)propyl carbonate and n-hexyl-2-(p-iodobenzyl)butyl carbonate. Six rats from each injected group were then sacrificed at periodic intervals and the brain and spinal cord removed for histopathological evaluation. By comparing the results of air and Pantopaque with the results using the iodinated compounds, an evaluation of their relative neurotoxicity was obtained.
The groups of rats were first subjected to standard quarantine procedure at the Lafayette Pharmacol, Inc. facilities for at least two weeks prior to dosing. About 18 hours prior to dosing, food was withdrawn but water was allowed ad lib. During injection, each animal was anesthetized in an ether chamber and the back of the neck closely clipped. After placing the animal on a board with the head declined at 45°, a puncture was made just at the base of the atlas and 0.1 ml. of the selected test substance was injected. Radiographs were then taken immediately after dosing to confirm the intrathecal location of the injected bolus, and the animals were returned to their cages for observation.
One group of six animals for each tested substance was then sacrificed at the following elapsed times post injection: 1 week; 2 weeks; 4 weeks; 8 weeks and 14 weeks. At sacrifice, the animal were perfused with saline and formalin. Each animal was again radiographed and the brain and spinal cord then removed and stored for histopathological study.

Data set [3] concerns albino mice. The data set is described as follows: Initial toxicity screen: Approximate Lethal Dose by intraperitoneal injection (Deichmann and LeBlanc). The data set is classed as in vivo. Conditions: 20% w/v in Sesame oil, for r also footnote (b): largest dose administered.
For data set [4], the system named is lung. Briefly: Bronchography study of laboratory animals (insuflation of a caudal lobe of one lung). Conditions: dog, dosed lobe, 2 weeks.
Experimental: (§1) Food was withdrawn from each animal 12 hours prior to dosing with water given ad lib. The animals were then first anesthetized with sodium pentobarbital and maintained on halothane. Each animal was then intubated with a tracheal tube and scouting X-ray films were taken to confirm its position. Next, a stainless steel guide wire was passed through a polypropylene tube, i.e., insuflation tube, and this combination was passed into the animal's lung. The position of this guide wire was then confirmed by fluoroscopy and the guide wire then removed, thus leaving the insulfation tube in place.
(§2) In this regard, the amount of selected iodinated phenyl carbonate compound varied for each animal according to weight, with 6 cc being given to the heaviest test dog. Oxygen at 20 psi was then used to insuflate a caudal lobe of one lung of each animal while monitoring with fluoroscopy. Lateral and direct view radiographs were then taken. […] Food was then given after 12 hours.
(§3) At 2 weeks, the animals were then anesthetized and radiographs taken while the lungs were expanded by air insuflation. The animals were then sacrificed by injection of saline and the dosed lobe of each animal examined histopathologically and compared with the corresponding undosed lobe.
The test system of data set [5] is lung. Conditions: dog, in vivo.
Experimental: as §1, §2, §3

For `CCCCOC(=O)SCc1ccc(I)cc1` [S-(p-iodobenzyl)-n-butyl thiolcarbonate], in data set [1], the “Histopathology of dosed nodes” value is on record as “mild granulomatous lymphadenitis or lipoidal lymphadenopathy”; the “Overall result after six weeks” value was “excellent overall results with only minor histopathological responses”; the “Rate of clearance and elimination (order, fastest to slowest)” value (shortened to “Rate of clearance and elimination”) is given as “almost the same”; the “Time to radiographically clear” value is reported as no more than 6 weeks.
On to `CC(C)COC(=O)OCc1ccc(I)cc1` [a, p-Iodobenzyl Isobutyl Carbonate], for which, in the data set with albino mice [2], the “Approximate Lethal Dose (ALD)” value amounted to 3 mL/kg.
The same measure, in the same setting: as for `CCCCCOC(=O)OCc1ccc(I)cc1` [b, n-Amyl-p-Iodobenzyl Carbonate], the figure is 3 mL/kg.
Regarding `CCCCCCOC(=O)OCc1ccc(I)cc1` [c, n-Hexyl-p-Iodobenzyl Carbonate], in data set [1], the “Rate of clearance and elimination” value is “p-iodobenzyl-n-butyl carbonate, p-iodobenzyl-n-hexyl carbonate, p-iodobenzyl-n-octyl carbonate and ethiodol”; the “Time to radiographically clear” value is listed as no more than 6 weeks. Moreover, in the data set on brain and spinal cord, the “Overall / histopathological response” value is given as “Relatively more severe histopathological responses”, the “Difficulty with righting responses” value is given as “more animals exhibiting righting difficulty” and the “Recovery from the injection procedure” value is “taking longer to recover”. Besides, the “Approximate Lethal Dose (ALD)” value with albino mice [2] came to 7 mL/kg.
As to `CC(C)CC(C)OC(=O)OCc1ccc(I)cc1` (stereo not drawn) [d, p-Iodobenzyl-4-methyl-2-Pentyl Carbonate], in the data set on albino mice [2], the “Approximate Lethal Dose (ALD)” value was 7 mL/kg.
On to `CCCCCCCCOC(=O)OCc1ccc(I)cc1` [e, n-Octyl-p-Iodobenzyl Carbonate], for which, in data set [1], the “Histopathology of dosed nodes” value was “mild granulomatous lymphadenitis or lipoidal lymphadenopathy”, the “Overall result after six weeks” value is given as “excellent overall results with only minor histopathological responses”, the “Radiographic state of iliac node” value is listed as “small droplets could be seen” and the “Radiographic state of popliteal node” value is given as “clear”. In addition, in data set [1], the “Rate of clearance and elimination” value was “p-iodobenzyl-n-hexyl carbonate, p-iodobenzyl-n-octyl carbonate and ethiodol”. In the data set on brain and spinal cord, the “Overall / histopathological response” value was “overall responses close to air and Pantopaque approximating normal”; the Lipid puddle formation result is recorded as “slightly more lipid puddle formation”; the “Difficulty with righting responses” value is reported as “an occasional animal showing some difficulty with righting responses”. Besides, the “Approximate Lethal Dose (ALD)” value in the data set on albino mice [2] came to 15 mL/kg.
Turning to `CCCCCCCCCCOC(=O)OCc1ccc(I)cc1` [f, n-Decyl-p-Iodobenzyl Carbonate], the “Approximate Lethal Dose (ALD)” value in the data set with albino mice [2] stood at 10.5 mL/kg.
In the case of `CCCCC(CC)COC(=O)OCc1ccc(I)cc1` (stereo not drawn) [g, 2-Ethylhexyl-p-Iodobenzyl Carbonate], in the data set with brain and spinal cord, the “Overall / histopathological response” value was “Relatively more severe histopathological responses”, the “Difficulty with righting responses” value is “more animals exhibiting righting difficulty” and the “Recovery from the injection procedure” value is listed as “taking longer to recover”. Besides, in the data set on albino mice [2], the “Approximate Lethal Dose (ALD)” value came out at 15 mL/kg.
As to `CCCC(CC)OC(=O)OCc1ccc(I)cc1` (stereo not drawn) [h, 3-Hexyl-p-Iodobenzyl Carbonate], the “Approximate Lethal Dose (ALD)” value in the data set with albino mice [2] was determined as 3 mL/kg.
For `CCCCCCC(C)OC(=O)OCc1ccc(I)cc1` (stereo not drawn) [i, 2-Octyl-p-Iodobenzyl Carbonate], in the data set on brain and spinal cord, the “Overall / histopathological response” value is recorded as “Relatively more severe histopathological responses”, the “Difficulty with righting responses” value is listed as “more animals exhibiting righting difficulty” and the “Recovery from the injection procedure” value is listed as “taking longer to recover”. In the data set on albino mice [2], the “Approximate Lethal Dose (ALD)” value was found to be 15 mL/kg.
Turning to `CCCCCCOC(=O)Oc1ccc(I)cc1` [j, n-Hexyl-p-Iodophenyl Carbonate], in the data set on albino mice [2], the “Approximate Lethal Dose (ALD)” value was determined as 7 mL/kg.
Turning to `CCCCCCCCOC(=O)Oc1ccc(I)cc1` [k, n-Octyl-p-Iodphenyl Carbonate], the “Approximate Lethal Dose (ALD)” value in the data set with albino mice [2] amounted to 7 mL/kg.
Still for that read-out and setting: the figure for `CCCCCCOC(=O)OC(C)c1ccc(I)cc1` (stereo not drawn) [l, n-Hexyl-p-Iodo-sec-Phenethyl Carbonate] is 10.5 mL/kg.
For the compound `CCCCCCOC(=O)OCCc1ccc(I)cc1` [m, n-Hexyl-p-Iodophenethyl Carbonate], the “Approximate Lethal Dose (ALD)” value in the data set on albino mice [2] was found to be 7 mL/kg.
As for `CCCCCCOC(=O)OCCCc1ccc(I)cc1` [n, n-Hexyl-3-(p-Iodophenyl)Propyl Carbonate], in the data set on brain and spinal cord, the “Overall / histopathological response” value is listed as “Relatively more severe histopathological responses”, the “Difficulty with righting responses” value is “more animals exhibiting righting difficulty” and the “Recovery from the injection procedure” value is given as “taking longer to recover”. Further, the “Approximate Lethal Dose (ALD)” value with albino mice [2] was found to be 15 mL/kg.
For the compound `CCCCCCOC(=O)OCCC(C)c1ccc(I)cc1` (stereo not drawn) [o, n-Hexyl-3-(p-Iodophenyl)Butyl Carbonate], the “Approximate Lethal Dose (ALD)” value with albino mice [2] is 7 mL/kg.
In the case of `CCCCCCOC(=O)OCC(CC)Cc1ccc(I)cc1` (stereo not drawn) [p, n-Hexyl-2-(p-Iodobenzyl)Butyl Carbonate], in the data set on brain and spinal cord, the “Overall / histopathological response” value is “overall responses close to air and Pantopaque approximating normal”; the Lipid puddle formation entry was “slightly more lipid puddle formation”; the “Difficulty with righting responses” value was “an occasional animal showing some difficulty with righting responses”. The “Approximate Lethal Dose (ALD)” value in the data set with albino mice [2] is given as “greater than 15 Ml/Kg”.
For the compound `CCOC(=O)OCc1ccc(I)cc1` [p-iodobenzyl ethyl carbonate], in data set [1], the Clearance of nodes is roughly 3 days; the “Histopathology of dosed nodes” value is “no change in the nodes”; the “Overall result after six weeks” value is given as “indistinguishable from undosed animals”; the “Rate of clearance and elimination” value is listed as “fastest”.
Take `CCCCOC(=O)OCc1ccc(I)cc1` [p-iodobenzyl-n-butyl carbonate]: in data set [1], the “Histopathology of dosed nodes” value is on record as “no change in the nodes”; the “Overall result after six weeks” value is listed as “indistinguishable from undosed animals”; the “Rate of clearance and elimination” value was “almost the same”; the “Time to radiographically clear” value is reported as no more than 6 weeks.
`CCCCCCOC(=O)OCC(CCCC)Cc1ccc(I)cc1` (stereo not drawn) [q, n-Hexyl-2-(p-Iodobenzyl)-n-Hexyl Carbonate]: in the data set on albino mice [2], the “Approximate Lethal Dose (ALD)” value was “greater than 15 Ml/Kg”.
With `CCCCCCOC(=O)OCc1c(I)cc(I)c(N)c1I` [r, 3-Amino-2,4,6-Triiodobenzyl-n-Hexyl Carbonate], the “Approximate Lethal Dose (ALD)” value in the data set on albino mice [3] is listed as “greater than 11 Ml/Kg”.
With `CCCCCCOC(=O)OCc1cc(I)cc(I)c1` [s, 3,5-Diiodobenzyl-n-Hexyl Carbonate], in the data set on albino mice [2], the “Approximate Lethal Dose (ALD)” value was 5 mL/kg.
Turning to `CCCCCCCCOC(=O)OCc1cccc(I)c1` [t, m-Iodobenzyl-n-Octyl Carbonate], the “Approximate Lethal Dose (ALD)” value with albino mice [2] is “greater than 17 Ml/Kg”.
`CCOC(=O)OCc1c(I)cc(I)c(NC(C)=O)c1I` [u, 3-acetamido-(2,4,6-triiodobenzyl)ethyl carbonate]: the “Gross lesions related to instillation” value with lung [4] is “No gross lesions were found that appeared specifically related to instillation of the contrast medium”. Besides, in the data set with lung [5], the “Histopathological alterations of dosed lobes” value was “obliterative granulomatous bronchiolitis”; the “Persistence of compound in lung” value is “some evidence the iodinated phenyl carbonate had persisted and was responsible for this granulomatous bronchiolitis”. The “Approximate Lethal Dose (ALD)” value in the data set on albino mice [3] was “greater than 22 Ml/Kg”.
In the case of `COC(=O)OC(C)c1ccc(I)cc1` (stereo not drawn) [v, p-Iodo-sec-Phenethyl Methyl Carbonate, reference compound], in the data set on albino mice [2] (compared with the compounds of Table II), the “Intraperitoneal toxicity (in words)” value is given as “more toxic”. In the data set on albino mice [2], the “Approximate Lethal Dose (ALD)” value was 1.5 mL/kg.
